The molecules below were run against T1, estrogen receptor (Homo sapiens, UniProt P03372) (assay: Alkaline phosphatase (AP) assay in ECC-1 cells, agonist mode (no E2) and antagonist mode (500 pM E2)). Settings: 3 days, AP activity normalized to 500 pM E2 alone, agonist mode without E2, antagonist mode with 500 pM E2.
T1 construct: endogenous in cells; host or cells: ECC-1 cells
T1 sequence (P03372 1-595): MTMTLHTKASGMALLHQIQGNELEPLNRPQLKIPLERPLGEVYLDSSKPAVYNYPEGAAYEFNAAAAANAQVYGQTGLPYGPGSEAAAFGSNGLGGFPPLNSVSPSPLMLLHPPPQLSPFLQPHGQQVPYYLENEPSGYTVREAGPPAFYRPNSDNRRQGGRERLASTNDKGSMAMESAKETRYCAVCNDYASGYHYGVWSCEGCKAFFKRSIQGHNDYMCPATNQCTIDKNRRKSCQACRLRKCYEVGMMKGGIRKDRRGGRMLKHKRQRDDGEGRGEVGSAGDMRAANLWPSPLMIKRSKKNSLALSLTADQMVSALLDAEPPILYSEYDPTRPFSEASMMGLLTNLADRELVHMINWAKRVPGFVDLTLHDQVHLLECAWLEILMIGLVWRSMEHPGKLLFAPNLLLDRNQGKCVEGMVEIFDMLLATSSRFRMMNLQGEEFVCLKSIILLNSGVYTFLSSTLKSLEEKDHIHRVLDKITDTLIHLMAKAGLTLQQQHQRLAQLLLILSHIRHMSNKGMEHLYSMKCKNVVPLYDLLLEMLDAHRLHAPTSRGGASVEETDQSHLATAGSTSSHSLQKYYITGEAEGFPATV
Format: cell-based
In short: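 ECC-1 cells in hormone-depleted medium treated 3 days with compound alone (agonist mode) or with 500 pM E2 (antagonist mode). Alkaline phosphatase read by p-nitrophenyl phosphate hydrolysis, 40 min at 42° C, A405. Activity normalized to 500 pM E2 alone.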

SMILES | Activity (estrogen receptor modulation, agonism and antagonism)
C[C@@H]1Cc2c([nH]c3ccccc23)[C@@H](c2cnc(C[C@@H]3CCN(CCC(F)F)C3)s2)N1CC(C)(C)F [Example I-51, 2-[[(3S)-1-(3,3-difluoropropyl)pyrrolidin-3-yl]methyl]-5-[(1S,3R)-2-(2-fluoro-2-methyl-propyl)-3-methyl-1,3,4,9-tetrahydropyrido[3,4-b]indol-1-yl]thiazole] | + (estrogen receptor agonism having (i) at least 80% increase in the E2-normalized signal in the AP assay (agonist mode) and (ii) no more than 80% reduction in the E2-normalized signal in the AP assay (antagonist mode))
C[C@@H]1Cc2c([nH]c3ccccc23)[C@@H](c2nnc(CC3CN(CCCF)C3)s2)N1CC(C)(C)F [Example I-52, 2-((1S,3R)-2-(2-fluoro-2-methylpropyl)-3-methyl-2,3,4,9-tetrahydro-1H-pyrido[3,4-b]indol-1-yl)-5-((1-(3-fluoropropyl)azetidin-3-yl)methyl)-1,3,4-thiadiazole] | ++ (estrogen receptor antagonism having (i) between 10% and 80% increase in the E2-normalized signal in the AP assay (agonist mode) and (ii) between 10% and 80% reduction in the E2-normalized signal in the AP assay (antagonist mode))
COCCCN1CC(Cc2ccc([C@@H]3c4[nH]c5ccccc5c4C[C@@H](C)N3CC(F)(F)CO)s2)C1 [Example I-53, 2,2-difluoro-3-[(1S,3R)-1-[5-[[1-(3-methoxypropyl)azetidin-3-yl]methyl]-2-thienyl]-3-methyl-1,3,4,9-tetrahydropyrido[3,4-b]indol-2-yl]propan-1-ol] | ++ (estrogen receptor antagonism having (i) between 10% and 80% increase in the E2-normalized signal in the AP assay (agonist mode) and (ii) between 10% and 80% reduction in the E2-normalized signal in the AP assay (antagonist mode))
COCCCN1CC(Cc2ccc([C@@H]3c4[nH]c5ccccc5c4C[C@@H](C)N3CC(C)(C)F)s2)C1 [Example I-54, (1S,3R)-2-(2-fluoro-2-methyl-propyl)-1-[5-[[1-(3-methoxypropyl)azetidin-3-yl]methyl]-2-thienyl]-3-methyl-1,3,4,9-tetrahydropyrido[3,4-b]indole] | + (estrogen receptor agonism having (i) at least 80% increase in the E2-normalized signal in the AP assay (agonist mode) and (ii) no more than 80% reduction in the E2-normalized signal in the AP assay (antagonist mode))
C[C@@H]1Cc2c([nH]c3ccccc23)[C@@H](c2sc(CC3CN(CCCF)C3)cc2F)N1CC(F)(F)CO [Example I-55, 2,2-difluoro-3-[(1S,3R)-1-[3-fluoro-5-[[1-(3-fluoropropyl)azetidin-3-yl]methyl]-2-thienyl]-3-methyl-1,3,4,9-tetrahydropyrido[3,4-b]indol-2-yl]propan-1-ol] | +++ (estrogen receptor antagonism (i) with pIC50 greater than 7.5 and at least a 10% reduction in the E2-normalized signal in the AP assay (antagonist mode); and no more than 10% increase in E2-normalized signal in the AP assay (agonist mode))
C[C@@H]1Cc2c([nH]c3ccccc23)[C@@H](c2ccc(CC3CN(CCC#N)C3)s2)N1CC(C)(C)F [Example I-56, 3-[3-[[5-[(1S,3R)-2-(2-fluoro-2-methyl-propyl)-3-methyl-1,3,4,9-tetrahydropyrido[3,4-b]indol-1-yl]-2-thienyl]methyl]azetidin-1-yl]propanenitrile] | ++ (estrogen receptor antagonism having (i) between 10% and 80% increase in the E2-normalized signal in the AP assay (agonist mode) and (ii) between 10% and 80% reduction in the E2-normalized signal in the AP assay (antagonist mode))
C[C@@H]1Cc2c([nH]c3ccccc23)[C@@H](c2ccc(CC3CN(CCC#N)C3)s2)N1CC(F)(F)CO [Example I-57] | ++ (estrogen receptor antagonism having (i) between 10% and 80% increase in the E2-normalized signal in the AP assay (agonist mode) and (ii) between 10% and 80% reduction in the E2-normalized signal in the AP assay (antagonist mode))
C#CCN1CC(Cc2ccc([C@@H]3c4[nH]c5ccccc5c4C[C@@H](C)N3CC(C)(C)F)s2)C1 [Example I-58, (1S,3R)-2-(2-fluoro-2-methyl-propyl)-3-methyl-1-[5-[(1-prop-2-ynylazetidin-3-yl)methyl]-2-thienyl]-1,3,4,9-tetrahydropyrido[3,4-b]indole] | + (estrogen receptor agonism having (i) at least 80% increase in the E2-normalized signal in the AP assay (agonist mode) and (ii) no more than 80% reduction in the E2-normalized signal in the AP assay (antagonist mode))
C[C@@H]1Cc2c([nH]c3ccccc23)[C@@H](c2ccc(CC3CN(CCC4COC4)C3)s2)N1CC(F)(F)CO [Example I-59, 2,2-difluoro-3-((1S,3R)-3-methyl-1-(5-((1-(2-(oxetan-3-yl)ethyl)azetidin-3-yl)methyl)thiophen-2-yl)-1,3,4,9-tetrahydro-2H-pyrido[3,4-b]indol-2-yl)propan-1-ol] | + (estrogen receptor agonism having (i) at least 80% increase in the E2-normalized signal in the AP assay (agonist mode) and (ii) no more than 80% reduction in the E2-normalized signal in the AP assay (antagonist mode))
C#CCN1CC(Cc2ccc([C@@H]3c4[nH]c5ccccc5c4C[C@@H](C)N3CC(F)(F)CO)s2)C1 [Example I-60, 2,2-difluoro-3-[(1S,3R)-3-methyl-1-[5-[(1-prop-2-ynylazetidin-3-yl)methyl]-2-thienyl]-1,3,4,9-tetrahydropyrido[3,4-b]indol-2-yl]propan-1-ol] | ++ (estrogen receptor antagonism having (i) between 10% and 80% increase in the E2-normalized signal in the AP assay (agonist mode) and (ii) between 10% and 80% reduction in the E2-normalized signal in the AP assay (antagonist mode))
C[C@@H]1Cc2c([nH]c3ccccc23)[C@@H](c2ccc(SC3CN(CCCF)C3)s2)N1CC(C)(C)F [Example I-61, 3-({5-[(1S,3R)-2-(2-fluoro-2-methylpropyl)-3-methyl-1H,2H,3H,4H,9H-pyrido[3,4-b]indol-1-yl]thiophen-2-yl}sulfanyl)-1-(3-fluoropropyl)azetidine] | ++ (estrogen receptor antagonism having (i) between 10% and 80% increase in the E2-normalized signal in the AP assay (agonist mode) and (ii) between 10% and 80% reduction in the E2-normalized signal in the AP assay (antagonist mode))
CCCN1CC(Sc2ccc([C@@H]3c4[nH]c5ccccc5c4C[C@@H](C)N3CC(C)(C)F)s2)C1 [Example I-62, 3-({5-[(1S,3R)-2-(2-fluoro-2-methylpropyl)-3-methyl-1H,2H,3H,4H,9H-pyrido[3,4-b]indol-1-yl]thiophen-2-yl}sulfanyl)-1-propylazetidine] | ++ (estrogen receptor antagonism having (i) between 10% and 80% increase in the E2-normalized signal in the AP assay (agonist mode) and (ii) between 10% and 80% reduction in the E2-normalized signal in the AP assay (antagonist mode))
C[C@@H]1Cc2c([nH]c3ccccc23)[C@@H](c2cnc(NC3CN(CCCF)C3)s2)N1CC(F)(F)CO [Example I-63, 2,2-difluoro-3-[(1S,3R)-1-[2-[[1-(3-fluoropropyl)azetidin-3-yl]amino]thiazol-5-yl]-3-methyl-1,3,4,9-tetrahydropyrido[3,4-b]indol-2-yl]propan-1-ol] | ++ (estrogen receptor antagonism having (i) between 10% and 80% increase in the E2-normalized signal in the AP assay (agonist mode) and (ii) between 10% and 80% reduction in the E2-normalized signal in the AP assay (antagonist mode))
C[C@@H]1Cc2c([nH]c3ccccc23)[C@@H](c2cnc(N[C@H]3CN(CCCF)C[C@H]3F)s2)N1CC(F)(F)CO [Example I-64, 2,2-difluoro-3-[(1S,3R)-1-[2-[[(3S,4R)-4-fluoro-1-(3-fluoropropyl)pyrrolidin-3-yl]amino]thiazol-5-yl]-3-methyl-1,3,4,9-tetrahydropyrido[3,4-b]indol-2-yl]propan-1-ol] | ++ (estrogen receptor antagonism having (i) between 10% and 80% increase in the E2-normalized signal in the AP assay (agonist mode) and (ii) between 10% and 80% reduction in the E2-normalized signal in the AP assay (antagonist mode))
C[C@@H]1Cc2c([nH]c3ccccc23)[C@@H](c2cnc(N[C@H]3CN(CCCF)C[C@@H]3F)s2)N1CC(F)(F)CO [Example I-65, 2,2-difluoro-3-((1S,3R)-1-(2-(((3S,4S)-4-fluoro-1-(3-fluoropropyl)pyrrolidin-3-yl)amino)thiazol-5-yl)-3-methyl-1,3,4,9-tetrahydro-2H-pyrido[3,4-b]indol-2-yl)propan-1-ol] | + (estrogen receptor agonism having (i) at least 80% increase in the E2-normalized signal in the AP assay (agonist mode) and (ii) no more than 80% reduction in the E2-normalized signal in the AP assay (antagonist mode))
C[C@@H]1Cc2c([nH]c3ccccc23)[C@@H](c2cnc(N[C@H]3CCCN(CCCF)C3)s2)N1CC(F)(F)CO [Example I-66] | ++ (estrogen receptor antagonism having (i) between 10% and 80% increase in the E2-normalized signal in the AP assay (agonist mode) and (ii) between 10% and 80% reduction in the E2-normalized signal in the AP assay (antagonist mode))

Source: US20260055103A1, “2,3,4,9-TETRAHYDRO-1H-PYRIDO[3,4-B]INDOLE DERIVATIVES AS ESTROGEN RECEPTOR MODULATORS FOR THE TREATMENT OF CANCER” (Olema Pharmaceuticals, Inc., priority 2022, published 2026)
